For three compounds, MIC and IC50 results are on record in ChEMBL document CHEMBL3994564 (Medchemcomm, 2016).

One assay concerns Escherichia coli. Briefly: Antibacterial activity against Escherichia coli ATCC 25922 after 24 hrs by MTT assay. The class given is functional. As to conditions: ATCC 25922, 24 h.
In a further assay the test system is Staphylococcus aureus. Briefly: Antibacterial activity against Staphylococcus aureus ATCC 6538 after 24 hrs by MTT assay. As to conditions: ATCC 6538, 24 h. The class given is functional.
The test system of a further assay is Bacillus subtilis. As to the kind of experiment: Antibacterial activity against Bacillus subtilis ATCC 530 after 24 hrs by MTT assay. As to conditions: ATCC 530, 24 h. Format: functional. On the technique in general: Formazan colour is commonly taken as a measure of viable cells.
Another assay relates to NIH3T3. As to the kind of experiment: Cytotoxic activity against mouse NIH/3T3 cells after 24 hrs by MTT assay. As to conditions: NIH3T3, 24 h. Format: cell-based.
A further assay relates to Pseudomonas aeruginosa. Briefly: Antibacterial activity against Pseudomonas aeruginosa ATCC 27853 after 24 hrs by MTT assay. The class given is functional. As to conditions: ATCC 27853, 24 h.
The target in assay [1] is T1, Beta-ketoacyl-[acyl-carrier-protein] synthase III (Escherichia coli K-12, UniProt P0A6R0).
T1 sequence (P0A6R0 whole entry): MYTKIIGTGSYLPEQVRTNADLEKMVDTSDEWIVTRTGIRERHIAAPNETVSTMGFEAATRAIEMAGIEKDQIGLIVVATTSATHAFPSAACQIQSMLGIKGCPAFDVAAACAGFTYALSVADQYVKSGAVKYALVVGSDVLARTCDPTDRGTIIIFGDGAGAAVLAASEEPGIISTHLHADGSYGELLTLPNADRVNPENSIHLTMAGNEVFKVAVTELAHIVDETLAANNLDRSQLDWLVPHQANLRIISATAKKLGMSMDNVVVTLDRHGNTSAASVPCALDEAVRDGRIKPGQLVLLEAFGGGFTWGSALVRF
Briefly: Inhibition of Escherichia coli FabH expressed in Escherichia coli DH10B using holo-ACP/acetyl-CoA as substrate assessed as incorporation of [3H] signal in final product preincubated with holo-ACP for 1 hr followed by acetyl-CoA addition measured after 25 mins by liquid scintillation counting method.

The structures appear in SMILES notation. Converted amounts (≈) assume the structure as drawn.

Broadly, the MIC is the least concentration at which growth counts as inhibited. A higher MIC goes with a less susceptible organism. Broadly, the IC50 is the concentration at which inhibition is half-maximal. `O=C(N/N=C/c1ccc(C(F)(F)F)cc1)c1ccc2c(c1)OCCCO2`: the MIC with Escherichia coli was found to be 25 µg/mL (≈ 68.6 µM); with Staphylococcus aureus, 12.5 µg/mL (≈ 34.3 µM); against Bacillus subtilis, 25 µg/mL (≈ 68.6 µM); with Pseudomonas aeruginosa, 12.5 µg/mL (≈ 34.3 µM). The IC50 with NIH3T3 came out at 104 µM; in assay [1], 12.4 µM.
Turning to `O=C(N/N=C/c1ccc([N+](=O)[O-])cc1)c1ccc2c(c1)OCCCO2`, the MIC against Escherichia coli was 25 µg/mL (≈ 73.2 µM); against Staphylococcus aureus, 50 µg/mL (≈ 146 µM); in the assay with Bacillus subtilis, 25 µg/mL (≈ 73.2 µM); against Pseudomonas aeruginosa it was 25 µg/mL (≈ 73.2 µM). The IC50 in the assay on NIH3T3 worked out at 185 µM; in assay [1], 17.6 µM.
On to `CN(C)c1ccc(/C=N/NC(=O)c2ccc3c(c2)OCCCO3)cc1`, for which the MIC against Escherichia coli was determined as 6.25 µg/mL (≈ 18.4 µM); in the assay on Staphylococcus aureus, 6.25 µg/mL (≈ 18.4 µM); in the assay on Bacillus subtilis, 6.25 µg/mL (≈ 18.4 µM); against Pseudomonas aeruginosa it was 12.5 µg/mL (≈ 36.8 µM). Further, the IC50 worked out at 135 µM with NIH3T3 and 7.2 µM in assay [1].
